Test [1] deals with bacterial viability of stimulated saliva samples. Description: Salivary ATP bacteria viability assay (luciferase). In kind it is cell-based. To be noted: one-minute treatment; for Log10 of Viability, Mean: average of two experiments. The source says: In order to screen for preliminary antibacterial efficacy, a NaDCC solution was subjected to an ATP-bacteria viability test. This method determines the number of viable bacterial cells in culture based on the quantification of adenosine triphosphate (ATP) present. ATP is a product of the catabolism of glucose (glycolysis) and aerobic respiration. This essential nucleoside triphosphate powers virtually all cell functions and is used by bacteria during cell division, the synthesis of nucleic acids and proteins, the transport of macromolecules, cell signaling, and bacterial motility. Given its importance, ATP signals the presence of metabolically active cells, and therefore it may be used to quantify cell viability.
In a reaction, luciferin is converted to oxiluciferin by the luciferase enzyme in the presence of ATP and oxygen. A direct relationship exists between the light output of the reaction and the number of metabolically active cells that makes this method ideal for the rapid screening of antimicrobial agents during the development of oral care formulas to establish their potential antibacterial efficacy. A salivary ATP assay was used to evaluate the antibacterial efficacy of NaDCC-containing tablets on bacterial viability of stimulated saliva samples.
In this assay, a mouthwash solution containing 0.075% cetylpyridinium chloride (CPC), a known antibacterial agent, was used as a positive control. An NaDCC tablet containing only NaDCC and weighing 20 mg was disintegrated in two phosphate buffered saline (PBS) solutions to yield both a 500 ppm NaDCC solution and a 1000 ppm NaDCC solution. […] Lower viability translates into higher antibacterial properties. The data below in Table 4 was calculated using the Tukey Method with a 95% Confidence Interval for the mean.

The nature of test [2]: pH-dependent bleaching of Lissamine green B by NaDCC. The protocol:
Two different solutions, Solution A and Solution B, were prepared. Solution A contained 2% SAPP, 0.1% Lissamine green B dye, and 97.9% water. Solution B contained 2% tetrasodium pyrophosphate (TSPP), 0.1% Lissamine green B dye, and 97.9% water. Next, solutions with various pHs were obtained by mixing the two different solutions A and B, in different volume ratios (i.e., 1:0, 1:5, 1:1, 5:1, and 0:1). 20 mL of the resulting solutions were added to 10 mg NaDCC, and the time required to bleach away all of the Lissamine green B color was recorded.

`CCCCCCCCCCCCCCCC[n+]1ccccc1` [CPC, cetylpyridinium chloride, reference compound]: the “Log10 of Viability, Mean” value in test [1] (0.075% CPC mouthwash solution (positive control)) worked out at 5.061 ± 0.032.

With `O=c1nc(O)n(Cl)c(=O)n1Cl` [NaDCC, sodium dichloroisocyanurate], the “Log10 of Viability, Mean” value is 4.139 ± 0.001 in test [1] (500 ppm NaDCC in PBS) and 3.530 ± 0.048 in test [1] (1000 ppm NaDCC in PBS). Further, in test [1] (NaDCC solutions at both 500 ppm and 1000 ppm in PBS), the “antibacterial properties compared to the 0.075% CPC solution” value is given as “statistically significant improvement”. Further, the Time to bleach result in test [2] (10 mg NaDCC in 20 mL Mix Solution 1, VA:VB 1:0, pH 4.6) is “Instantaneous”; in test [2] (10 mg NaDCC in 20 mL Mix Solution 2, VA:VB 1:5, pH 5.8), 0.25 min; in test [2] (10 mg NaDCC in 20 mL Mix Solution 3, VA:VB 1:1, pH 7.4), 8 min; in test [2] (10 mg NaDCC in 20 mL Mix Solution 4, VA:VB 5:1, pH 8.8) it was 35 min; in test [2] (10 mg NaDCC in 20 mL Mix Solution 5, VA:VB 0:1, pH 10.5), 80 min.

The record behind these values is patent US20200163857A1, “Dual Component Compositions for Teeth Whitening” (Colgate-Palmolive Company, priority 2018, published 2020).
